Patent US10770169B2, “Method of providing a treatment to a subject based on a dynamic pathway map” (THE REGENTS OF THE UNIVERSITY OF CALIFORNIA, priority 2010, dated 2020)
Where two headings read alike, the source gives them in different places.

System: panel of 55 breast cancer cell lines
Assay: Cell growth inhibition assay (Cell Titer Glo, 72 h, 9 doses; GI50, TGI, LC50)
Format: cell-based, human
Conditions: Homo sapiens, read-out: GI50 (converted)

Q: Which results are given for `NS(=O)(=O)OC[C@@H]1C[C@@H](n2ccc3c(N[C@H]4CCc5ccccc54)ncnc32)C[C@@H]1O` [MLN4924]?
A: GI50 (AU565, cell line AU565, censored GI50 values): 0.182 µM; GI50 (AU565, cell line AU565): 0.182 µM; GI50 (BT-20, cell line BT20, censored GI50 values): 2.75 µM; GI50 (BT-20, cell line BT20): 2.75 µM; GI50 (BT-474, cell line BT474, censored GI50 values): 0.575 µM; GI50 (BT-474, cell line BT474): 0.575 µM; GI50 (BT-483, cell line BT483, censored GI50 values): 33.1 µM; GI50 (BT-483, cell line BT483): 33.1 µM; GI50 (CAMA-1, cell line CAMA1, censored GI50 values): 0.0513 µM; GI50 (CAMA-1, cell line CAMA1): 0.0513 µM; GI50 (HCC38, cell line HCC38, censored GI50 values): 0.0275 µM; GI50 (HCC38, cell line HCC38): 0.0275 µM; GI50 (HCC70, cell line HCC70, censored GI50 values): 33.1 µM; GI50 (HCC70, cell line HCC70): 33.1 µM; GI50 (HCC1143, cell line HCC1143, censored GI50 values): 0.245 µM; GI50 (HCC1143, cell line HCC1143): 0.245 µM; GI50 (HCC1187, cell line HCC1187, censored GI50 values): 0.501 µM; GI50 (HCC1187, cell line HCC1187): 0.501 µM; GI50 (HCC1419, cell line HCC1419, censored GI50 values): 0.0229 µM; GI50 (HCC1419, cell line HCC1419): 0.0229 µM; GI50 (HCC1428, cell line HCC1428, censored GI50 values): 0.117 µM; GI50 (HCC1428, cell line HCC1428): 0.117 µM; GI50 (HCC1500, cell line HCC1500, censored GI50 values): 0.0117 µM; GI50 (HCC1500, cell line HCC1500): 0.0117 µM; GI50 (HCC1806, cell line HCC1806, censored GI50 values): 0.0214 µM; GI50 (HCC1806, cell line HCC1806): 0.0214 µM; GI50 (HCC1937, cell line HCC1937, censored GI50 values): 2.63 µM; GI50 (HCC1937, cell line HCC1937): 2.63 µM; GI50 (HCC1954, cell line HCC1954, censored GI50 values): 4.47 µM; GI50 (HCC1954, cell line HCC1954): 4.47 µM; GI50 (MDA-MB-134-VI, cell line MDAMB134VI, censored GI50 values): 0.0525 µM; GI50 (MDA-MB-175-VII, cell line MDAMB175VII, censored GI50 values): 0.427 µM; GI50 (MDA-MB-415, cell line MDAMB415, censored GI50 values): 0.0741 µM; GI50 (MDA-MB-415, cell line MDAMB415): 0.0741 µM; GI50 (MDA-MB-436, cell line MDAMB436, censored GI50 values): 0.269 µM; GI50 (MDA-MB-436, cell line MDAMB436): 0.269 µM; GI50 (MDA-MB-453, cell line MDAMB453, censored GI50 values): 2.19 µM; GI50 (MDA-MB-453, cell line MDAMB453): 2.19 µM; GI50 (MDA-MB-468, cell line MDAMB468, censored GI50 values): 0.204 µM; GI50 (MDA-MB-468, cell line MDAMB468): 0.204 µM; GI50 (SK-BR-3, cell line SKBR3, censored GI50 values): 0.151 µM; GI50 (SK-BR-3, cell line SKBR3): 0.151 µM; GI50 (SUM52PE, cell line SUM52PE, censored GI50 values): 0.398 µM; GI50 (SUM52PE, cell line SUM52PE): 0.398 µM; GI50 (SUM149PT, cell line SUM149PT, censored GI50 values): 0.191 µM; GI50 (SUM149PT, cell line SUM149PT): 0.191 µM; GI50 (SUM1315MO2, cell line SUM1315MO2, censored GI50 values): 33.1 µM; GI50 (SUM-159-PT, cell line SUM159PT, censored GI50 values): 0.589 µM; GI50 (SUM-159-PT, cell line SUM159PT): 0.589 µM; GI50 (T47D, cell line T47D, censored GI50 values): 0.117 µM; GI50 (T47D, cell line T47D): 0.117 µM; GI50 (UACC-812, cell line UACC812, censored GI50 values): 1 µM; GI50 (UACC-812, cell line UACC812): 1 µM; GI50 (ZR-75-1, cell line ZR751, censored GI50 values): 33.9 µM; GI50 (ZR-75-1, cell line ZR751): 33.9 µM; GI50 (ZR-75B, cell line ZR75B, censored GI50 values): 0.145 µM; GI50 (ZR-75B, cell line ZR75B): 0.145 µM; GI50 (cell line 600MPE, censored GI50 values): 0.372 µM; GI50 (cell line 600MPE): 0.372 µM; GI50 (cell line HCC2185, censored GI50 values): 0.372 µM; GI50 (cell line HCC2185): 0.372 µM; GI50 (cell line HCC3153, censored GI50 values): 0.229 µM; GI50 (cell line HCC3153): 0.229 µM; GI50 (cell line LY2, censored GI50 values): 0.158 µM; GI50 (cell line LY2): 0.158 µM; GI50 (cell line MDAMB134V): 0.0525 µM; GI50 (cell line MDAMB175V): 0.427 µM; GI50 (cell line SUM1315MO): 33.1 µM
